Measurements: paper PMC8536679, “A small molecule produced by Lactobacillus species blocks Candida albicans filamentation by inhibiting a DYRK1-family kinase” (Nature Communications, 2021)

Target: T1, Yak1 (Candida albicans, UniProt A0A1D8PH81)
T1 construct: full-length, C-terminal 6xHis-3xFlag tag kept; both YAK1 alleles tagged and overexpressed in C. albicans; native purification on anti-Flag gel, eluted with 3xFlag peptide
Assay: ADP-Glo kinase assay with DYRKtide
Format: biochemical
Conditions: 10 µM ATP, 0.2 mg/mL DYRKtide, 2.5 mM MgCl2, HEPES-NaOH pH 7.2, 40 min; ATP site proposed by docking only

T1 sequence (A0A1D8PH81 entry or part of it): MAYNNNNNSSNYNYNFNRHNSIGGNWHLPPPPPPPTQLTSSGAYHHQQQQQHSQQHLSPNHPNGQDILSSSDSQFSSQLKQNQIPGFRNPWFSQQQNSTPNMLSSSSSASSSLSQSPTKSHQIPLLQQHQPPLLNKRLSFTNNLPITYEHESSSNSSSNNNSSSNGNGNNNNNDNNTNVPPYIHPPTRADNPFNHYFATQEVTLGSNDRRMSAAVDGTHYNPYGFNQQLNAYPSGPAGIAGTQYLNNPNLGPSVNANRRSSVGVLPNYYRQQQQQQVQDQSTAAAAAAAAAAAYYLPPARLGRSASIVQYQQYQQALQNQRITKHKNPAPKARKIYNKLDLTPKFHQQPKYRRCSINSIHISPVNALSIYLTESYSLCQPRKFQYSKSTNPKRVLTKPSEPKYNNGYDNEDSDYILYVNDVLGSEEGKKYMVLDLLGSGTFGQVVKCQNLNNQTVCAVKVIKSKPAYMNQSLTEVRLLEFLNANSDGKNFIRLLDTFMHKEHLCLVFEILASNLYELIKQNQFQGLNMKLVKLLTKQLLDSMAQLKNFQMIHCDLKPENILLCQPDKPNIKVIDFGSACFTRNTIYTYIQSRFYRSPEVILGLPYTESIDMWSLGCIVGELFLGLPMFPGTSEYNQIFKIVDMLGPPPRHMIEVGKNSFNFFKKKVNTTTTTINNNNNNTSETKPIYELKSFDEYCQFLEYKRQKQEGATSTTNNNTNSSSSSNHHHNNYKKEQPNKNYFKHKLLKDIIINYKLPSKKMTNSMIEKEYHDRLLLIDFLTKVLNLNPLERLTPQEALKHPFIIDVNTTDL

Row | SMILES | concentration-dependent inhibition
1 | CCOC(=O)c1nccc2c1[nH]c1ccccc12 [1-ECBC, 1-ethoxycarbonyl-β-carboline] | 1-ECBC and harmine, a known β-carboline scaffold DYRK inhibitor, exhibited concentration-dependent inhibition of Yak1 activity
2 | COc1ccc2c(c1)[nH]c1c(C)nccc12 [harmine] | 1-ECBC and harmine inhibit Yak1 activity in a concentration-dependent manner
